Patent US8877801B2, “Compounds and compositions as selective estrogen receptor degraders” (Novartis AG, priority 2013, dated 2014)
Like-named read-outs stand apart in the source and are kept apart here.

Tests used:
ERα = biological target: T1, ERα (Homo sapiens, UniProt P03372); assay: ERα degradation (MCF7 cells), in-cell Western; type: cell-based; settings: for % ERα remaining: 10 μM concentration of the ligand, MCF7 cells, 18-24 hours, relative to DMSO control
T1 construct: transfected in MCF7 cells (containing endogenous ER); endogenous in cells; host or cells: MCF7 cells
T1 sequence (P03372 1-595): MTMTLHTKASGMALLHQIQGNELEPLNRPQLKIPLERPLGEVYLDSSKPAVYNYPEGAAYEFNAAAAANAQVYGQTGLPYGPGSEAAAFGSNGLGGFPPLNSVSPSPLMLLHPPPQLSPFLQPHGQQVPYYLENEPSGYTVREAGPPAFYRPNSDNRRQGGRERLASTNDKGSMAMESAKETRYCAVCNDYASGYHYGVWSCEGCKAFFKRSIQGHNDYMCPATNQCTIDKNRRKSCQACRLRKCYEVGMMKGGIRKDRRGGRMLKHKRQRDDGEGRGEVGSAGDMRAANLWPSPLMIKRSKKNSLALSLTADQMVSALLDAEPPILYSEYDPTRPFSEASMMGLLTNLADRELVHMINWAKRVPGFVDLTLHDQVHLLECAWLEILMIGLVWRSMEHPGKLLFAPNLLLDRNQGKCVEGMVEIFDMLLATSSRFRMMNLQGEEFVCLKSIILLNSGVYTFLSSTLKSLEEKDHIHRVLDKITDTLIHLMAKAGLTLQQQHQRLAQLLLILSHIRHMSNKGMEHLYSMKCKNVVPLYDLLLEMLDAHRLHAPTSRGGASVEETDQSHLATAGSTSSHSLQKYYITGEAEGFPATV
Protocol: ERα Degradation (MCF7 Cells)
(§1) The data describing the antagonist and degradation properties for the examples is compiled in table 10. The column titled MCF7 IC50 reports the inflection point of the inhibition of transcription in MCF7 cells as described above. Percentage ERα remaining reports the remaining ERα protein measured at 10 μM concentration of the ligand as described above. The column ERα IC50 reports the inflection point of the degradation in response to the ligand concentration.

ER = biological target: T2, ER (Homo sapiens, UniProt P03372); assay: ER transcription assay (MCF7 cells), ERE-luciferase reporter; type: cell-based
T2 construct: transfected in MCF7 cells (containing endogenous ER); endogenous in cells; host or cells: MCF7 cells
T2 sequence (P03372 1-595): T1 sequence (P03372 1-595)
From the text: ER Transcription Assay (MCF7 Cells)
The ER transcription assay is a reporter assay that is based on the ability of ER to induce transcription from a luciferase reporter gene containing estrogen response elements (EREs) in the promoter/enhancer region. When the reporter gene is transfected in MCF7 cells (containing endogenous ER), transcription is reflected by the level of luciferase expression.
A day before transfection, cells are split into a T75 flask at a cell density of 300,000 cells/mL (10 mL total) and allowed to attach overnight in a humidified CO2 incubator at 37° C.
Approximately 20 ug DNA is mixed in OptiMEM (Invitrogen) to a total volume of 650 μL. Following incubation, the OptiMEM-DNA mixture is added to the OptiMEM-Lipofectin mix and incubated for 15 minutes at 37° C. The DNA-Lipofectin mixture is then added directly to the T75 flask and the flask is returned to the incubator.
After overnight incubation, compound is added to individual wells of a 96-well plate in a 10 μL volume of media at 10× concentration along with 17β estradiol whose final concentration is 0.1 nM. Normally, DMSO (used as a vehicle) is included to achieve a final concentration of 0.1% when added to the cells. Transfected cells are trypsinized, resuspended in DMEM/F12/10% charcoal-stripped serum and added to the 96-well plate at 25,000 cells/well in 90 μL of media. The plate is then returned to the incubator for 24 hours.
After incubation with compounds for 24 hours, Firefly and Renilla luciferase activities are measured to determine ER transcriptional activity. Media is removed from 96-well plates by decanting and blotting on paper towels.
One second total read time after a one second delay.
One second total read time after one second delay. If Firefly luciferase signal is high, Renilla assay must be done an hour after the Firefly assay due to incomplete squelching of Firefly signal.
as §1

[1] = MCF7 cells, ER reporter gene, 0.1 nM 17β estradiol, 24 hours, read-out: MCF7 IC50 (inflection point of the inhibition of transcription in MCF7 cells)
[2] = comparison of bond order between the phenyl and -C(O)OH
[3] = comparison of bond order between the phenyl and -C(O)OH, read-out: SERD IC50 MCF7 μM (antagonist activity)
[4] = comparison of groups at the X position
[5] = comparison of groups at the X position, read-out: IC50 MCF7 μM (antagonist activity)

SMILES | % ERα remaining (ERα) [%] | IC50 (ER; [1]) [nM] | also measured
COc1cc(Oc2c(-c3ccc(O)cc3)sc3cc(O)ccc23)ccc1/C=C/C(=O)O [Example 58, (E)-3-(4-((6-hydroxy-2-(4-hydroxyphenyl)-benzo[b]thiophen-3-yl)oxy)-2-methoxyphenyl)acrylic acid] | 35 | 5020 | 
O=C(O)CCCc1ccc(Oc2c(-c3ccc(O)cc3)sc3cc(O)ccc23)cc1 [reference compound] |  |  | ER Percentage remaining (degradation potential) (ERα; [2]): 55%; IC50 (ER; [3]): ≥ 10000 nM
CNC(=O)/C=C/c1ccc(Oc2c(-c3ccc(C(F)(F)F)cc3)sc3cc(O)ccc23)cc1 [Example 70, (E)-3-(4-((6-hydroxy-2-(4-(trifluoromethyl)phenyl)benzo[b]thiophen-3-yl)oxy)phenyl)-N-methylacrylamide] | 41 | 269 | 
CNC(=O)/C=C/c1ccc(Oc2c(-c3ccc(O)c(F)c3)sc3cc(O)ccc23)cc1 [Example 69, (E)-3-(4-((2-(3-fluoro-4-hydroxyphenyl)-6-hydroxybenzo[b]thiophen-3-yl)oxy)phenyl)-N-methylacrylamide] | 32 | 41 | 
Oc1ccc(-c2sc3cc(O)ccc3c2Oc2ccc(/C=C/c3c[nH]cn3)cc2)cc1 [Example 72, (E)-3-(4-(2-(1H-imidazol-4-yl)vinyl)phenoxy)-2-(4-hydroxyphenyl)benzo[b]thiophen-6-ol] | 47 | 125 | 
CCCn1cnc(/C=C/c2ccc(Oc3c(-c4ccc(O)cc4)sc4cc(O)ccc34)cc2)c1 [Example 74, (E)-2-(4-hydroxyphenyl)-3-(4-(2-(1-propyl-1H-imidazol-4-yl)vinyl)phenoxy)benzo [b]thiophen-6-ol] | 41 | 108 | 
O=C(O)c1ccc(Oc2c(-c3ccc(O)cc3)sc3cc(O)ccc23)cc1 [reference compound] |  |  | ER Percentage remaining (degradation potential) (ERα; [2]): 57%; IC50 (ER; [3]): ≥ 10000 nM
O=C(O)/C=C/c1ccc(C(=O)c2c(-c3ccc(O)cc3)sc3cc(O)ccc23)cc1 [reference compound] |  |  | ER Percentage remaining (degradation potential) (ERα; [4]): 60%; IC50 (ER; [5]): > 10000 nM
Cc1cc(F)ccc1-c1sc2cc(O)ccc2c1Oc1ccc(/C=C/c2nnc(C3CC3)o2)cc1 [Example 76, (E)-3-(4-(2-(5-cyclopropyl-1,3,4-oxadiazol-2-yl)vinyl)phenoxy)-2-(4-fluoro-2-methylphenyl)benzo[b]-thiophen-6-ol] | 36 | 16 | 
O=C(O)/C=C/c1ccc(Oc2c(-c3ccc(O)cc3)sc3cc(O)ccc23)cc1 [Example 2, (E)-3-(4-((6-hydroxy-2-(4-hydroxyphenyl)benzo[b]thiophen-3-yl)oxy)phenyl)acrylic acid] |  | 748 | ER Percentage remaining (degradation potential) (ERα; [2]): 41%; ER Percentage remaining (degradation potential) (ERα; [4]): 41%; IC50 (ER; [3]): 748 nM; IC50 (ER; [5]): 748 nM
CCCn1cncc1/C=C/c1ccc(Oc2c(-c3ccc(O)cc3)sc3cc(O)ccc23)cc1 [Example 75, (E)-2-(4-hydroxyphenyl)-3-(4-(2-(1-propyl-1H-imidazol-5-yl)vinyl)phenoxy)benzo[b] thiophen-6-ol] | 42 | 10 | 
Cn1cnc(/C=C/c2ccc(Oc3c(-c4ccc(O)cc4)sc4cc(O)ccc34)cc2)c1 [Example 73, (E)-2-(4-hydroxyphenyl)-3-(4-(2-(1-methyl-1H-imidazol-4-yl)vinyl)phenoxy)-benzo[b]thiophen-6-ol] | 32 | 58 | 
CNC(=O)/C=C/c1ccc(Oc2c(-c3ccc(O)cc3)sc3cc(O)ccc23)cn1 [Example 71, (E)-3-(5-((6-hydroxy-2-(4-hydroxyphenyl)benzo[b]thiophen-3-yl)oxy)pyridin-2-yl)-N-methylacrylamide] | 39 | 53 | 
O=C(O)/C=C/c1ccc(-c2c(-c3ccc(O)cc3)sc3cc(O)ccc23)cc1 [reference compound] |  |  | ER Percentage remaining (degradation potential) (ERα; [4]): 76%; IC50 (ER; [5]): > 10000 nM
C/C(=C\C(=O)O)c1ccc(Oc2c(-c3ccc(O)cc3)sc3cc(O)ccc23)cc1 [Example 62, (E)-3-(4-((6-hydroxy-2-(4-hydroxyphenyl)-benzo[b]thiophen-3-yl)oxy)phenyl)but-2-enoic acid] |  | 316 | 
O=C(O)/C=C/c1ccc(Oc2c(-c3ccc(C(F)F)cc3)sc3cc(O)ccc23)cc1 [Example 27, (E)-3-(4-((2-(4-(difluoromethyl)phenyl)-6-hydroxybenzo[b]thiophen-3-yl)oxy)phenyl)acrylic acid] |  | 7970 | 
